PubChem BioAssay AID623903 (Broad Institute, 2012)
Where “and” joins values, the source holds several entries; their conditions need not be identical. Identical values can stand only once. Calls of active or inactive are those of the source.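 Rule for the calls: active = compounds cutting yeast growth whose half-maximal concentration is at most twice their top valid dose; inconclusive = flat growth loss of 30 to 70 percent, or poor fit; inactive = the rest.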

System: not listed separately
Experiment: C. glabrata growth inhibition on glycerol, dose response, glycerol medium, OD600, powder samples, set 2 (AID 623903)
Settings: Candida glabrata growth in glycerol, OD600, 48 h; at 6 µM (top of the series)

Compound | growth change, negative = inhibition
Cc1ccc(N2C(=O)NC(=O)C23CCCCC3)cc1 | 44.5% (inactive)
O=C1NC(=S)N(c2ccc(F)cc2)C12CCCCC2 | -17.4% (inactive)
Cc1ccc(N2CC(=O)NC2=S)cc1 | 3.32% (inactive)
Cc1ccc(N2C(=S)NC(=O)C2(C)C)cc1 | -2.42% (inactive)
Cc1ccc(N2C(=S)NC(=O)C23CCCCC3)cc1 | -3.05% (inactive)
CCOC(=O)N1C(=S)NC(=O)C12CCCCC2 | 11.1% (inactive)
CCCCN1C(=O)N(c2ccc(C)cc2)C2(CCCCC2)C1=O | -2.19% (inactive)
Cc1ccc(N2C(=S)N(C(=O)Oc3ccccc3)C(=O)C23CCCCC3)cc1 | -4.17% (inactive)
CCOC(=O)N1C(=O)C(C)(C)N(c2ccc(C)cc2)C1=S | -13.4% (inactive)
Cc1ccc(N2C(=O)C(=O)NC2=S)cc1 | 19.6% (inactive)
CCOC(=O)N1C(=O)C2(CCCCC2)NC1=S | -2.7% (inactive)
O=C1NC(=S)NC12CCCCC2 | 10.1% (inactive)
Cc1ccc(N2C(=S)N(S(C)(=O)=O)C(=O)C23CCCCC3)cc1 | 1.2% (inactive)
Cc1ccc(N2C(=S)NC(=O)C23CCC3)cc1 | 3.27% (inactive)
Cc1ccc(N2C(=S)NC(=O)C23CCCC3)cc1 | -31.4% (inactive)
O=C1NC(=S)N(Cc2ccccc2)C12CCCCC2 | -0.552% (inactive)
O=C1NC(=S)N(c2ccccc2)C12CCCCC2 | 21.1% (inactive)
CCOC(=O)N1C(=O)N(c2ccc(C)cc2)C2(CCCCC2)C1=O | -38.8% (inactive)
CCOC(=O)N1C(=S)N(c2ccc(C)cc2)C(=O)C12CCCCC2 | 14.3% (inactive)
CC(C)N1C(=S)NC(=O)C12CCCCC2 | 5.61% (inactive)
Cc1ccc(N2C(=S)N(C)C(=O)C23CCCCC3)cc1 | -20.3% (inactive)
Cc1ccc(N2C(=O)C3(CCCCC3)NC2=S)cc1 | 5.63% (inactive)
Cc1ccc(N2CC(=O)NC2=O)cc1 | 28.9% (inactive)
Cc1ccc(N2C(=O)N(C)C(=O)C23CCCCC3)cc1 | 24.2% (inactive)

System: Candida glabrata growth in glycerol, OD600, 48 h
Experiment: as above
Settings: not given

Compound | AC50
Cc1ccc(N2C(=S)N(C(=O)OCc3ccccc3)C(=O)C23CCCCC3)cc1 | 5540 nM
CCCc1ccc(N2C(=S)N(C(=O)OCC)C(=O)C23CCCCC3)cc1 | 629 nM
CCOC(=O)N1C(=O)C2(CCCCC2)N(c2ccc(C#N)cc2)C1=S | 67.2 nM
CC1/C=C/C=C\C=C\C=C\C=C\C=C\C=C\C(O[C@H]2OC(C)C(O)C(N)C2O)CC2OC(O)(CC(O)CC(O)C(O)CCC(O)CC(O)CC(=O)OC(C)C(C)C1O)CC(O)C2C(=O)O (stereo partly drawn) | 205 nM
CCOC(=O)N1C(=O)C2(CCCC2)N(c2ccc(C)cc2)C1=S | 315 nM
CCOC(=O)N1C(=O)C2(CCCCC2)N(c2ccccc2C)C1=S | 541 nM
CCOC(=O)N1C(=O)C2(CCCCC2)N(c2ccc(-c3ccccc3)cc2)C1=S | 242 nM
CCOC(=O)N1C(=O)C2(CCCCC2)N(c2ccc(Cl)cc2)C1=S | < 23.5 nM
CCCOC(=O)N1C(=O)C2(CCCCC2)N(c2ccc(C)cc2)C1=S | 95.3 nM
CCCCN1C(=O)C2(CCCCC2)N(c2ccc(C)cc2)C1=S | > 12000 nM (inactive)
CCOC(=O)N1C(=O)C2(CCCCC2)N(c2ccc(F)cc2)C1=S | < 23.5 nM
CCOC(=O)N1C(=O)C2(CCCCC2)N(c2ccc(OC)cc2)C1=S | 255 nM
COC(=O)N1C(=O)C2(CCCCC2)N(c2ccc(C)cc2)C1=S | 136 nM
CCOC(=O)N1C(=O)C2(CCCCC2)N(c2ccc(C(F)(F)F)cc2)C1=S | 44.3 nM
CCOC(=O)N1C(=O)C2(CCOCC2)N(c2ccc(C)cc2)C1=S | 1480 nM
CCOC(=O)N1C(=S)N(c2ccc(C)cc2)C2(CCCCC2)C1=NCc1ccccc1 | 3750 nM
CCCCN1C(=O)N(c2ccc(C)cc2)C2(CCCCC2)C1=S | > 12000 nM (inactive)
CCOC(=O)N1C(=O)C2(CCCCC2)N(C(C)C)C1=S | 2750 nM
CCOC(=O)N1C(=O)C2(CCCCC2)N(c2ccc(C)cc2)C1=S | 56.4 nM and 45.2 nM
CCOC(=O)N1C(=O)C2(CCCCC2)N(c2ccc(C(C)(C)C)cc2)C1=S | 1980 nM
CCOC(=O)N1C(=O)C2(CCCCC2)N(c2ccccc2)C1=S | 28.9 nM
CCOC(=O)N1C(=O)C2(CCCCC2)N(c2ccc(CC)cc2)C1=S | 133 nM
CCOC(=O)N1C(=O)C2(CCCCC2)N(Cc2ccccc2)C1=S | < 23.5 nM
CCCC(=O)N1C(=O)C2(CCCCC2)N(c2ccc(C)cc2)C1=S | 102 nM
CCOC(=O)N1C(=O)C2(CCCCC2)N(c2ccc(C(C)C)cc2)C1=S | 829 nM
CCOC(=O)N1C(=O)C2(CCC2)N(c2ccc(C)cc2)C1=S | 2510 nM
Cc1ccc(N2C(=S)N(C(=O)OC(C)C)C(=O)C23CCCCC3)cc1 | 638 nM
Cc1ccc(N2C(=S)NC(=O)C23CCOCC3)cc1 | > 12000 nM (inactive)
CCOC(=O)N1C(=O)C2(CCCCC2)N(c2cccc(C)c2)C1=S | 86.6 nM
